Measurements taken from publication PMC2936488 (ACS chemical neuroscience, 2010).

Biological target: T1, M1 muscarinic acetylcholine receptor (M1 mAChR) (Homo sapiens, UniProt P11229)
T1 sequence (P11229 1-460): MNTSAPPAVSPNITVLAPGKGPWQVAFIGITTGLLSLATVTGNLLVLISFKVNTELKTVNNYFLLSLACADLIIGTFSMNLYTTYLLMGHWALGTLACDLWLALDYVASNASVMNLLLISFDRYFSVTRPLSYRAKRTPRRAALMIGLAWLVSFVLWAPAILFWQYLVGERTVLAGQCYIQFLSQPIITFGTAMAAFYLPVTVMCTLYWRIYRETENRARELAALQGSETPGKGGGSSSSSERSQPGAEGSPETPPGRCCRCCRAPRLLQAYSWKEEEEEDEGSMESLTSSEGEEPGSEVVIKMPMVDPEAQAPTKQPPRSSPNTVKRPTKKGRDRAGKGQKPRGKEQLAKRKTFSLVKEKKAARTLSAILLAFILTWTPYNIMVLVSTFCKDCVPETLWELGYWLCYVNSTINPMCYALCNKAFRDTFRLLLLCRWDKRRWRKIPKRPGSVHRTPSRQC
Test: intracellular calcium mobilization in M1-CHO cells
Assay type: cell-based

EC50: 0.146 µM
SMILES: CCCCC1CCN(CCCN2C(=O)COc3cc(F)ccc32)CC1 [AC260584]
